The values below are quoted from earlier work in US20260027339A1, “FLEXIBLE IMPLANTABLE DEPOTS FOR CONTROLLED DRUG RELEASE” (Foundry Therapeutics, Inc., priority 2023, published 2026).

By LD50 is commonly meant the dose expected to kill half of the subjects tested.

Read-outs that look alike come from different tables or passages of the source.

For data set [1] the following is noted: at 25° C.

`OCc1ccccc1` [benzyl alcohol]: the vapor pressure in data set [1] was 12.53. For the compound `O=C(OCc1ccccc1)c1ccccc1` [benzyl benzoate], the vapor pressure in data set [1] is reported as 0.03 Pa.

In the case of `CCCCN1CCCCC1C(=O)Nc1c(C)cccc1C` (stereo not drawn) [bupivacaine], the results for the LD50 with rats (intravenous) and with rats (subcutaneous) were 6 mg/kg and 43 mg/kg, respectively.

For `CCOC(=O)c1ccccc1C(=O)OCC` [diethyl phthalate], in data set [1], the vapor pressure is 0.28 Pa. As for `CC(=O)OCC(COC(C)=O)OC(C)=O` [triacetin], in data set [1], the vapor pressure is given as 0.33 Pa.
